# Assay results taken from patent US10800739B2, “4-carboxamido-isoindolinone derivatives as selective PARP-1 inhibitors” (NERVIANO MEDICAL SCIENCES S.r.l, priority 2012, dated 2020).
# Counter-ions that a name gives are not always drawn. Like-named read-outs stand apart in the source and are kept apart here.
# How the values were obtained:
# [1] = test system: hydrogen peroxide induced PAR formation in HeLa cells; assay: PAR assay: inhibition of hydrogen peroxide induced PAR formation in HeLa cells; details: Homo sapiens, read-out: PAR assay (IC50 μM)
# [2] = target: PARP-2 (Homo sapiens (Human), UniProt Q9UGN5); assay: Fluorescence polarization displacement assay with probe of formula (IP), PARP-2; type: binding; details: probe P1
# Protocol: (§1) Affinity evaluation of the tested compounds and their selectivity with respect to the different PARP isoforms of interest was assessed in a displacement assay.
# (§2) b) comparing the polarization signal generated in the absence of the test compound with the one generated in the presence of different concentrations of the test compound, and
# (§3) c) evaluating the ability of the test compound to displace the compound of formula (IP) as defined above indicated from a decreased fluorescence polarization level.
# (§4) The 5H-phenanthridin-6-one-derived probe (IP) was selected for its capability of binding to the PARP proteins, both encompassing full-length native proteins and fragments thereof.
# (§5) The polarization signal can be measured, e.g., by a plate reader such as the Saphire2 (Tecan). Data analysis was performed, e.g., by using the Dynafit software. Displacement data were also fitted, e.g., by using Excel spreadsheet (Microsoft Inc. Seattle, USA) to a four parameter logistic model (4PL), or Hill-Slope model. The assay was used to test compounds of the present invention. The displacement ability of the test compounds of formula (I) is in correlation with the compounds affinity for the NAD pocket of the enzyme.
# [3] = target: PARP-1 (Homo sapiens (Human), UniProt P09874); assay: Fluorescence polarization displacement assay with probe of formula (IP), PARP-1; type: binding; details: for DC50: probe P1
# Protocol: as §1, §2, §3, §4, §5
# [4] = target: PARP-3 (Homo sapiens (Human), UniProt Q9Y6F1); assay: Fluorescence polarization displacement assay with probe of formula (IP), PARP-3; type: binding
# Protocol: as §1, §2, §3, §4, §5
# [5] = Pharmacokinetics and oral bioavailability in the mouse; type: in vivo; details: for F on AUC: 10 mg/kg, ratio of oral to IV dose-normalized AUC; for clearance / Vd / AUC / Cmax / half-life: male, Balb Nu/Nu, plasma, mean value; for clearance / Vd: 10 mg/kg intravenous bolus; for clearance: read-out: Cl (IV bolus); for Vd: read-out: Vdss (IV bolus); for AUC / Cmax / half-life: 10 mg/kg oral; for half-life: read-out: T½ (oral) (converted)
# [6] = test system: BRCA-mutated cancer; details: 19 patients with BRCA mutations and breast, ovarian and prostate cancer, phase I; cited from earlier work
# [7] = test system: Capan-1 human pancreatic cancer tumors; assay: In vivo efficacy as single agent, Capan-1 BRCA-2 mutated mouse model; details: 75 mg/kg oral daily; for Max TGI (%): single agent, Capan-1 xenograft; for Toxicity: body weight reduction, out of 7 mice treated
# Description: Balb, athymic Nu/Nu male mice, from Harlan (Italy), were maintained in agreement with the European Communities Council Directive no. 86/609/EEC concerning the protection of animals used for experimental or other scientific purposes, in cages with paper filter cover, food and bedding sterilized and acidified water. Fragments of Capan-1 human pancreatic cancer tumors were implanted subcutaneously. […] Each group included seven animals. The treatment started one day after randomization. Compound of formula (I) was administered by oral route as a methocel suspension at the indicated doses and times. Tumor dimension was measured regularly by calipers during the experiments and tumor mass was calculated as described in Simeoni M. et al., Cancer Res 64, 1094-1101 (2004).
# [8] = probe P1; read-out: PARP-3 (DC50 μM)
# PARP-1, sequence (P09874 whole entry): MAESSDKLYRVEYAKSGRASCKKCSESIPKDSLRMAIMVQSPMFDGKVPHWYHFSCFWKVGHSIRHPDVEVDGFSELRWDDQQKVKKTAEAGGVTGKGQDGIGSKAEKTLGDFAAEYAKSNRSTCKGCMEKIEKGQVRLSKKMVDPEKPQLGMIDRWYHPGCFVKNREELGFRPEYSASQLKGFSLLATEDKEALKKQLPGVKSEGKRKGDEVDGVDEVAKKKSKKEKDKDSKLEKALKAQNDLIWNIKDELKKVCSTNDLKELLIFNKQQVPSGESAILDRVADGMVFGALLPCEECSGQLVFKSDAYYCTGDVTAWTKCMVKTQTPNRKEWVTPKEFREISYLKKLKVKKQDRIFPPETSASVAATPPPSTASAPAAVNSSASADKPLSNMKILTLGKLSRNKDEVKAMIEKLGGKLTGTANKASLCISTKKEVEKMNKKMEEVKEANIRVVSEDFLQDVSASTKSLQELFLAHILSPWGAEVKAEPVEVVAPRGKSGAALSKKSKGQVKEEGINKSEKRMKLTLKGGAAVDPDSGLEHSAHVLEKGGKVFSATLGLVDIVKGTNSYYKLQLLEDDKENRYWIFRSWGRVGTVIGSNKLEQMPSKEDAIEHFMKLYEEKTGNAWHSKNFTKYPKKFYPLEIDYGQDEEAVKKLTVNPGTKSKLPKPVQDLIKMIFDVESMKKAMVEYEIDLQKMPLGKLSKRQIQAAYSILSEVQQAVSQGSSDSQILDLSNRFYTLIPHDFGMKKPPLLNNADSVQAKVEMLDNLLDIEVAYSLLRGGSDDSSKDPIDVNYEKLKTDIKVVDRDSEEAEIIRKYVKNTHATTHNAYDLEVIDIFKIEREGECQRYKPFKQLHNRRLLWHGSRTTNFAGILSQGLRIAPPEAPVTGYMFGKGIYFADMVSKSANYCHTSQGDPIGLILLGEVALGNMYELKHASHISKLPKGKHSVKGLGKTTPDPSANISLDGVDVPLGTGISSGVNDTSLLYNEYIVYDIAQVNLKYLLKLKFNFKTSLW
# PARP-2, sequence (Q9UGN5 whole entry): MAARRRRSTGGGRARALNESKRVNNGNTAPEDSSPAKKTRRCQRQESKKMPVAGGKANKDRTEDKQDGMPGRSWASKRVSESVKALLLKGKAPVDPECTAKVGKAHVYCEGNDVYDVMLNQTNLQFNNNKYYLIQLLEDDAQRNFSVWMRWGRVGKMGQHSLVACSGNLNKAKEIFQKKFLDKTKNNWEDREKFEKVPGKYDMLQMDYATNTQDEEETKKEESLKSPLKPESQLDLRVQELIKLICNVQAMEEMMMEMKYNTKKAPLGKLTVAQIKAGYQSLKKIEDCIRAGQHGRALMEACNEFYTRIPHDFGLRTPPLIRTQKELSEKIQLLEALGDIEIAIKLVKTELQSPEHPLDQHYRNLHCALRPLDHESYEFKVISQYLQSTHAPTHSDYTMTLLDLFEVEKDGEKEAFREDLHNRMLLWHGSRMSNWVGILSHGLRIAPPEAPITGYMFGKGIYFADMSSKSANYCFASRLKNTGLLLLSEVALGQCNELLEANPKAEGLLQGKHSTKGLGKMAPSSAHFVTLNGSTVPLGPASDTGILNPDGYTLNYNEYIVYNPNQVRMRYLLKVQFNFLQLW
# PARP-3, sequence (Q9Y6F1 whole entry): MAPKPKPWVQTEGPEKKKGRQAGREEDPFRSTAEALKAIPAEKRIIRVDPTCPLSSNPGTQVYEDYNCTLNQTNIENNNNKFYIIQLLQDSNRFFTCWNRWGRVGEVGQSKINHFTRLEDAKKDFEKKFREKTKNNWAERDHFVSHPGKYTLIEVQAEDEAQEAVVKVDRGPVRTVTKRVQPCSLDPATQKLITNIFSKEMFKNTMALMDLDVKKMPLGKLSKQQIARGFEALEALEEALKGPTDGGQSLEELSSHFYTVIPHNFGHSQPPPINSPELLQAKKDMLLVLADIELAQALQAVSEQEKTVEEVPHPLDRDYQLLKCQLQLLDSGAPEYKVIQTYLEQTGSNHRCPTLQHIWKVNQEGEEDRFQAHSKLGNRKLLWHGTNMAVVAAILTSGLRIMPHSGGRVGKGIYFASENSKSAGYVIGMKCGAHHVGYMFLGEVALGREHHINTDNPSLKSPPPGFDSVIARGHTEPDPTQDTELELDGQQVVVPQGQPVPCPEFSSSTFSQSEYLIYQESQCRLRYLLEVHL
compound,measurement,setting,value
"NC(=O)c1cccc2c1C(=O)N(CCCc1ccccc1)C2 [(17), 3-oxo-2-(3-phenyl-propyl)-2,3-dihydro-1H-isoindole-4-carboxylic Acid Amide]",IC50,[1],1.51 µM
"NC(=O)c1cccc2c1C(=O)N(CCC1CCN(Cc3ccccc3)CC1)C2 [(31), 2-[2-(1-benzyl-piperidin-4-yl)-ethyl]-3-oxo-2,3-dihydro-1H-isoindole-4-carboxylic Acid Amide Hydrochloride]",DC50,[2],> 10 µM
same,IC50,[1],0.2 µM
same,DC50,[3],< 0.25 µM
"NC(=O)c1cccc2c1C(=O)N(C1CCN(Cc3ccccc3)CC1)C2 [(30), 2-(1-benzyl-piperidin-4-yl)-3-oxo-2,3-dihydro-1H-isoindole-4-carboxylic Acid Amide]",DC50,[4]; [8],0.35 µM
same,DC50,[3],< 0.25 µM
"CN1CCN(CCCN2Cc3cccc(C(N)=O)c3C2=O)CC1 [(21), 2-[3-(4-methyl-piperazin-1-yl)-propyl]-3-oxo-2,3-dihydro-1H-isoindole-4-carboxylic Acid Amide]",IC50,[1],0.6 µM
same,DC50,[3],0.28 µM
"NC(=O)c1cccc2c1C(=O)N(CCN1CCc3ccccc3C1)C2 [(3), 2-[2-(3,4-dihydro-1H-isoquinolin-2-yl)-ethyl]-3-oxo-2,3-dihydro-1H-isoindole-4-carboxylic Acid Amide]",F on AUC,[5],30%
same,clearance,[5],63.1 mL/min/kg
same,Vd,[5],1.54 L/kg
same,AUC,[5],2.51 µM·h
same,Cmax,[5],3.06 µM
same,half-life,[5],40.8 min
"CC1CCCC(C)N1CCCN1Cc2cccc(C(N)=O)c2C1=O (stereo not shown) [(27), 2-[3-(2,6-dimethyl-piperidin-1-yl)-propyl]-3-oxo-2,3-dihydro-1H-isoindole-4-carboxylic Acid Amide Hydrochloride]",DC50,[2],> 10 µM
"NC(=O)c1cccc2c1C(=O)N(CCCN1CCCc3ccccc31)C2 [(20), 2-[3-(3,4-dihydro-2H-quinolin-1-yl)-propyl]-3-oxo-2,3-dihydro-1H-isoindole-4-carboxylic Acid Amide]",DC50,[2],0.58 µM
same,Kd,[2],0.19 µM
same,IC50,[1],0.83 µM
same,Kd,[3],< 0.03 µM
same,DC50,[3],< 0.25 µM
"NC(=O)c1cccc2c1C(=O)N(C1CCN(Cc3ccoc3)CC1)C2 [(14), 2-(1-furan-3-ylmethyl-piperidin-4-yl)-3-oxo-2,3-dihydro-1H-isoindole-4-carboxylic Acid Amide]",F on AUC,[5],57%
same,clearance,[5],81.8 mL/min/kg
same,Vd,[5],2.68 L/kg
same,AUC,[5],3.22 µM·h
same,Cmax,[5],2.29 µM
same,half-life,[5],53.4 min
same,IC50,[1],0.011 µM
O=C(c1cc(Cc2n[nH]c(=O)c3ccccc23)ccc1F)N1CCN(C(=O)C2CC2)CC1 [Olaparib],objective response rate,[6],47%
"NC(=O)c1cccc2c1C(=O)N(CCCN1CCC(Cc3ccccc3)CC1)C2 [(32), 2-[3-(4-benzyl-piperidin-1-yl)-propyl]-3-oxo-2,3-dihydro-1H-isoindole-4-carboxylic Acid Amide]",IC50,[1],0.17 µM
"NC(=O)c1cccc2c1C(=O)N(C1CCN(CC3CC3)CC1)C2 [(24), 2-(1-cyclopropylmethyl-piperidin-4-yl)-3-oxo-2,3-dihydro-1H-isoindole-4-carboxylic Acid Amide]",IC50,[1],0.11 µM
"NC(=O)c1cccc2c1C(=O)N(C1CCN(Cc3ccc[nH]3)CC1)C2 [(16), 3-oxo-2-[1-(1H-pyrrol-2-ylmethyl)-piperidin-4-yl]-2,3-dihydro-1H-isoindole-4-carboxylic Acid Amide]",F on AUC,[5],37%
same,clearance,[5],79.3 mL/min/kg
same,Vd,[5],2.51 L/kg
same,AUC,[5],2.13 µM·h
same,Cmax,[5],2.97 µM
same,half-life,[5],37.8 min
same,IC50,[1],0.02 µM
"NC(=O)c1cccc2c1C(=O)N(C1CCN(Cc3cccs3)CC1)C2 [(9), 3-oxo-2-(1-thiophen-2-ylmethyl-piperidin-4-yl)-2,3-dihydro-1H-isoindole-4-carboxylic Acid Amide]",IC50,[1],1.4 µM
"NC(=O)c1cccc2c1C(=O)N(CCCN1CCc3ccccc3C1)C2 [(19), 2-[3-(3,4-dihydro-1H-isoquinolin-2-yl)-propyl]-3-oxo-2,3-dihydro-1H-isoindole-4-carboxylic Acid Amide]",IC50,[1],0.33 µM
same,Kd,[3],< 0.03 µM
same,DC50,[3],< 0.25 µM
"NC(=O)c1cccc2c1C(=O)N(C1CCN(Cc3ccco3)CC1)C2 [(12), 2-(1-furan-2-ylmethyl-piperidin-4-yl)-3-oxo-2,3-dihydro-1H-isoindole-4-carboxylic Acid Amide]",IC50,[1],3.9 µM
"NC(=O)c1cccc2c1C(=O)N(C1CCN(C3CCCCC3)CC1)C2 [(11), 2-(1-cyclohexyl-piperidin-4-yl)-3-oxo-2,3-dihydro-1H-isoindole-4-carboxylic Acid Amide]",DC50,[2],2.53 µM
same,Kd,[2],1.4 µM
same,F on AUC,[5],100%
same,clearance,[5],41.3 mL/min/kg
same,Vd,[5],4.47 L/kg
same,AUC,[5],20.4 µM·h
same,Cmax,[5],3.87 µM
same,half-life,[5],163 min
same,Max TGI (%),[7],42%
same,Toxicity,[7],0/7
same,IC50,[1],0.02 µM
same,DC50,[4]; [8],2.06 µM
same,Kd,[3],< 0.01 µM
same,DC50,[3],< 0.25 µM
"NC(=O)c1cccc2c1C(=O)N(CCCN1CCN(c3ccccc3)CC1)C2 [(22), 3-oxo-2-[3-(4-phenyl-piperazin-1-yl)-propyl]-23-dihydro-1H-isoindole-4-carboxylic Acid Amide]",DC50,[2],2.12 µM
same,IC50,[1],0.4 µM
same,Kd,[3],< 0.03 µM
same,DC50,[3],< 0.25 µM
"NC(=O)c1cc(F)cc2c1C(=O)N(CCCN1CCOCC1)C2 [(23), 6-Fluoro-2-(3-morpholin-4-yl-propyl)-3-oxo-2,3-dihydro-1H-isoindole-4-carboxylic Acid Amide]",DC50,[2],2 µM
same,IC50,[1],0.4 µM
same,Kd,[3],< 0.03 µM
same,DC50,[3],< 0.25 µM
"NC(=O)c1cccc2c1C(=O)N(C1CCN(C3CCOCC3)CC1)C2 [(28), 3-ox-2-[1-(tetrahydro-pyran-4-yl)-piperidin-4-yl]-2,3-dihydro-1H-isoindole-4-carboxylic Acid Amide]",DC50,[4]; [8],5.48 µM
"NC(=O)c1cc(F)cc2c1C(=O)N(C1CCN(C3CCCCC3)CC1)C2 [(29), 2-(1-cyclohexyl-piperidin-4-yl)-6-fluoro-3-oxo-2,3-dihydro-1H-isoindole-4-carboxylic acid amide]",DC50,[2],2.92 µM
same,IC50,[1],0.5 µM
same,DC50,[4]; read-out: PARP-3 (DC50 μM); probe P1,1 µM
same,Kd,[3],< 0.01 µM
same,DC50,[3],< 0.25 µM
"NC(=O)c1cccc2c1C(=O)N(C1CCN(Cc3ccccn3)CC1)C2 [(15), 3-oxo-2-(1-pyridin-2-ylmethyl-piperidin-4-yl)-2,3-dihydro-1H-isoindole-4-carboxylic Acid Amide]",F on AUC,[5],68%
same,clearance,[5],16.9 mL/min/kg
same,Vd,[5],0.79 L/kg
same,AUC,[5],19.2 µM·h
same,Cmax,[5],8.73 µM
same,half-life,[5],60.6 min
same,Max TGI (%),[7],54%
same,Toxicity,[7],0/7
same,DC50,[4]; [8],0.9 µM
